Laboratory results as given in patent US12239617B2, “Mono- and di-amidine endo-exonuclease inhibitors and methods for inhibiting endo-exonuclease activity” (MONTDOREX INC., priority 2017, dated 2025).

Tests used:
[1] = system: Endo/exonuclease in Pneumocystis carinii; conditions: cited from earlier work
[2] = system: H460 Lung Carcinoma Cell Line; test: MTT assay on H460 Lung Carcinoma Cell Line; format: cell-based
Source text: (§1) Cell Survival—MTT assay: The MTT (3-[4,5-Dimethylthiazol-2-yl]-2,5 diphenyl tertrazolim bromide) method of determining cell growth/cytotoxicity is used to determine cell survival. MIT is a tetrazolium salt cleaved by mitochondrial dehydrogenases of living cells. Cleavage converts yellow, water soluble MTT to an insoluble, purple formazan crystal. The crystals can be solubilized with a 50% N,N-dimethylformamide (vol/vol), 20% SDS (wt/vol) solution (pH4.7), and absorbance determined at a wavelength of 570 nm. Dead cells will not cleave MTT and uncleaved MTT is not detectable at this wavelength. The amount of MTT that is cleaved increases with increasing cell numbers, and decreases as a result of cell cytotoxicity (Niks and Otto 1990, Hussain et al. 1993). Cells were harvested from cell cultures using a standard protocol (i.e. Trypsin/EDTA). The cells (1000 to 5000 cells depending on cell type in 50 μl) were then plated and incubated overnight at 37° C. The compound (e.g. the compound of formula (I); compound of formula (II); pentamidine; or the vehicle) was introduced. After 2 days of incubation at 37° C., 10 μl of a 5 mg/ml solution of MTT was then added to all the experimental wells as well as the media control well. The plates were further incubated for 4 hours. MTT solubilization buffer (100 μl) was then added and the plates were incubated overnight at 37° C. The plates were then read on an ELISA plate reader with absorbance at 570 nm and a reference at 630 nm.
(§2) Iniparib, Veliparib and Olaparib were also subjected to the MTT assay without an endo-exonuclease compound as controls.

[3] = system: HT29 Colon Cancer Cell Line; test: MTT assay on HT29 Colon Cancer Cell Line; format: cell-based, human
Procedure: (§3) Cell lines from human colon adenocarcinoma (HT29), human breast adenocarcinoma (MCF7) and human cervical epithelioid carcinoma (HeLa) were obtained from the American Type Culture Collection (ATCC) and have ATCC accession numbers HTB-38, HTB-22, and CCL-2 respectively. The normal primary cell, NHDF, was obtained from Dr. Shirley Lehnert. These cells are normal human skin fibroblasts. The cells were grown in RPMI media supplemented with 10% FCS at 37° C. in a humidified incubator with 5% CO2.
as §1, §2

human endo-exonuclease = test: Endo-exonuclease inhibition assay (digestion of circular plasmid DNA, agarose gel); format: biochemical
Procedure: The human endo-exonuclease was isolated according to the method described by Liu and Chow et al (1995). The cultured cells were detached with trypsin-EDTA and the cell suspensions were centrifuged at 4° C. with a force of 700 g for 10 minutes. The cell pellets were washed twice with cold phosphate buffered saline (PBS). The cells were then resuspended and sonicated in 20 mM Tris-HCl, pH 7.5, containing 5 mM EDTA and 1 mM PMSF (buffer A). The resulting cell lysis suspensions were centrifuged at 4° C. at 10,000 g for 15 min. The supernatants were then loaded onto an antibody-protein A-Sepharose affinity column, as previously described by Chow and Resnick (1987). After washing extensively with buffer A (i.e. until the A280 of the eluates were zero), the column was then eluted with buffer A containing 3.5 M MgCl2 to elute the endo-exonuclease. The eluted endo-exonuclease was dialyzed extensively against buffer A with at least two changes of buffer and one change of distilled water. The endo-exonuclease was then concentrated by lyophilization.
The endo-exonuclease activities were determined by measuring the digestion of circular plasmid DNA following the exemplary set of steps. Superhelical pBR322 DNA (or YEp DNA) was treated with endo-exonuclease at 37° C. Reactions were stopped by the addition of a solution containing 5 mM EDTA, 1% SDS, 30% glycerol, and bromophenol blue. The resulting mixtures were then loaded onto a 0.7% agarose gel and electrophoresed for 3 hours at 70 V. The gels were stained with 100 ml of 0.5 μg/ml ethidium bromide solution. Endo-exonuclease activities were measured as the rate of conversion from RFI to RFII to RFIII and subsequent fragments.
For the inhibition assay, pentamidine, mono-amidine compounds according to the present teachings and di-amidine compounds according to the present teachings were added to the endo-exonuclease prior to the start of the nuclease reaction. In order to arrive at the measurements related to the % of cell growth of H661, the MTT assay as described above was performed. The resulting endo-exonuclease inhibition is shown in the Table 1 and Table 2 that follow: […]

[4] = system: MCF7 Breast Cancer Cell Line; test: MTT assay on MCF7 Breast Cancer Cell Line; format: cell-based, human
Procedure: as §3, §1, §2

Lewis Lung cancer cells = test: Lewis Lung cancer secondary lung tumours in mice after removal of the primary tumour; format: in vivo; conditions: treated after surgical removal of primary tumour
Procedure: Lewis Lung cancer cells are injected subcutaneously into standard laboratory mice […]. Thereafter, they rapidly formed solid tumours. The sizes of the tumours can be measured. Although the injected cells are derived from lung cancers, the tumours actually grow in the back of the mice. All animals were inoculated at the same site. Primary tumours were allowed to grow until they were 0.5-1.0 cm^3 in size. At this point, cells from the tumours start circulating in the blood streams of the mice. These circulating cells have the capacity to form secondary tumours in the lung. The primary tumours are removed surgically from the mice. The mice are then treated with the amidine compounds so as to try and control the growth of secondary tumours. The extent to which control has been achieved is measured by sacrificing the mice and by physically counting the new tumours that can be seen growing on the surfaces of the lungs.

H661 (Lung Cancer Cell) = test: MTT assay, cell growth of H661 lung cancer cell; format: cell-based
Source text: as §1, with “4 hours. […] The plates” for “4 hours. MTT solubilization buffer (100 μl) was then added and the plates were incubated overnight at 37° C. The plates”, “630 nm. […]” for “630 nm.”

[5] = cited from earlier work
[6] = Homo sapiens, NCI-H460, PARP inhibitor alone: Iniparib 42 μM, Veliparib 50 μM, Olaparib 73 μM
[7] = Homo sapiens, HT-29, PARP inhibitor alone: Iniparib 42 μM, Veliparib 50 μM, Olaparib 73 μM
[8] = Homo sapiens, PARP inhibitor alone: Iniparib 42 μM, Veliparib 50 μM, Olaparib 73 μM

N=C(NC1CC1)c1ccc(-c2ccc(-c3ccc(C(=N)NC4CC4)cc3)o2)cc1 [2,5-bis [4-N-(cyclopropylguanyl)phenyl] furan]
nuclease inhibition activity in P. carinii [1]: showed nuclease inhibition activity

c1cc(-c2ccc(-c3ccc(C4=NCCCN4)cc3)o2)ccc1C1=NCCCN1 [2,5-bis-p[3,4,5,6-tetrahydropyrimidyl)phenyl]furan]
nuclease inhibition activity in P. carinii [1]: showed nuclease inhibition activity

CC(C)NC(=N)c1ccc(-c2ccc(-c3ccc(C(=N)NC(C)C)cc3)o2)cc1 [2,5-bis[4-(N-isopropylguanyl)phenyl]furan]
nuclease inhibition activity in P. carinii [1]: inhibits endo-exonuclease activity

CC(C)CNC(=N)c1ccc(-c2ccc(-c3ccc(C(=N)NCC(C)C)cc3)o2)cc1 [2,5-bis[4-N-isobutylguanyl)phenyl]furan]
nuclease inhibition activity in P. carinii [1]: showed nuclease inhibition activity

N=C(NCC1CC1)c1ccc(-c2ccc(-c3ccc(C(=N)NCC4CC4)cc3)o2)cc1 [2,5-bis[4-[(N-cyclopropylmethylguanyl)phenyl]furan]
nuclease inhibition activity in P. carinii [1]: showed nuclease inhibition activity

N=C(N)c1ccc(-c2ccc(-c3ccc(C(=N)N)cc3)o2)cc1 [2,5-bis[4-guanylphenyl]furan]
nuclease inhibition activity in P. carinii [1]: showed nuclease inhibition activity

N=C(NC1CCC1)c1ccc(-c2ccc(-c3ccc(C(=N)NC4CCC4)cc3)o2)cc1 [2,5-bis[(4-N-cyclobutylgunayl)phenyl]furan]
nuclease inhibition activity in P. carinii [1]: showed nuclease inhibition activity

N=C(NC1CCCC1)c1ccc(-c2ccc(-c3ccc(C(=N)NC4CCCC4)cc3)o2)cc1 [2,5-bis[(4-N-cyclopentylguanyl)phenyl]furan]
nuclease inhibition activity in P. carinii [1]: showed nuclease inhibition activity

N=C(Nc1ccccc1)c1ccc(OCCCCCOc2ccc(C(=N)Nc3ccccc3)cc2)cc1 [Di-Amidine A]
% Inhibition ([2]; MTDX101 33 μM alone): 25% | % Inhibition ([2]; MTDX101 336 μM alone): 85% | % Inhibition ([3]; MTDX101 33 μM alone): 15% | % Inhibition ([3]; MTDX101 336 μM alone): 64% | IC50 (human endo-exonuclease): 58 µM | % Inhibition ([4]; MTDX101 33 μM alone): 20% | % Inhibition ([4]; MTDX101 336 μM alone): 80% | Lung Cysts remaining (% of Control) (Lewis Lung cancer cells): 1.7 % of Control

CC(C)NC(=N)c1ccc(OCCCCCOc2ccc(C(=N)NC(C)C)cc2)cc1 [Di-Amidine B]
IC50 (human endo-exonuclease): 14 µM | Lung Cysts remaining (% of Control) (Lewis Lung cancer cells): 0.22 % of Control

NC(=O)c1ccc(I)c([N+](=O)[O-])c1 [Iniparib]
inhibition at 42 µM [2, 6]: 0.8% | inhibition at 42 µM [3, 7]: 4.8% | inhibition at 42 µM [4, 8]: 5%

O=C(c1cc(Cc2n[nH]c(=O)c3ccccc23)ccc1F)N1CCN(C(=O)C2CC2)CC1 [Olaparib]
inhibition at 73 µM [2, 6]: 11% | inhibition at 73 µM [3, 7]: 14% | inhibition at 73 µM [4, 8]: 17%

N=C(N)c1ccc(OCCCCCOc2ccc(C(=N)N)cc2)cc1 [Pentamidine, pentamidine]
IC50 (human endo-exonuclease): 50 µM | Endo-exonuclease Inhibition at 50 μM (%) (human endo-exonuclease; 50 μM): 50% | Lung Cysts remaining (% of Control) (Lewis Lung cancer cells): 4.5 % of Control | H661 (Lung Cancer Cell) (% of Cell Growth at 2.5 μM) (H661 (Lung Cancer Cell); 2.5 μM, negative value = cell killing): 20 ± 2% | death of the cancer cells (H661) (H661 (Lung Cancer Cell); Table 1): Death of the cancer cells was not observed | safety for patients ([5]; 4 mg/kg to 7 mg/kg for two days every two weeks): safe for patients | toxicity (known clinical data) ([5]; human, in vivo): low toxicity

C[C@]1(c2nc3c(C(N)=O)cccc3[nH]2)CCCN1 [Veliparib]
inhibition at 50 µM [2, 6]: 19% | inhibition at 50 µM [3, 7]: 6% | inhibition at 50 µM [4, 8]: 13%
